The text below walks through data of paper PMC5405074, “Receptor-Mediated Melanoma Targeting with Radiolabeled α-Melanocyte-Stimulating Hormone: Relevance of the Net Charge of the Ligand” (Frontiers in Endocrinology, 2017).

One data set deals with B16-F1 cells. The experiment in a line: In situ melanin assay in B16-F1 cells. The following applies: for Reduction of biological activity compared to DOTA-NAP-amide: melanin assay. Type of data set: cell-based, mouse. How it is done:
The biological activity of the α-MSH derivatives was assessed with an in situ melanin assay ([40]). Briefly, B16-F1 cells (2,500 cells per well in 100 µL) were distributed into 96-well flat-bottom cell culture plates. MEM without phenol red, supplemented with 10% heat-inactivated fetal calf serum, 2 mM L-glutamine, 0.31 mmol/L L-tyrosine, 1% non-essential amino acids, 1% vitamin solution, 50 IU/mL penicillin, and 50 µg/mL streptomycin, was used as culture medium. After overnight incubation at cell culture conditions mentioned above, concentrations of α-MSH derivatives ranging from 1 × 10^−8 to 1 × 10^−12 in 100-µL volumes were added (in threefold dilution steps), and the incubation was continued for an additional 72 h. Melanin production was quantified by determining the absorbance at 310 nm in a microplate reader.

The conditions of data set [1]: in vivo; cited from earlier work.

Marks after values point to notes of the source that are not given here. Non-standard residues stand in square brackets, D forms with d. Residues, ends and D or L forms follow the SMILES beside them. *: point of attachment. DOTA = O=C(O)CN1CCN(CC(=O)O)CCN(CC(=O)*)CCN(CC(=O)O)CC1; Nle = CCCC[C@H](N)C(=O)O

Take `CCCC[C@H](NC(C)=O)C(=O)N[C@@H](CC(=O)O)C(=O)N[C@@H](Cc1c[nH]cn1)C(=O)N[C@H](Cc1ccccc1)C(=O)N[C@@H](CCCNC(=N)N)C(=O)N[C@@H](Cc1c[nH]c2ccccc12)C(=O)NCC(=O)N[C@@H](CCCCNC(=O)CN1CCN(CC(=O)O)CCN(CC(=O)O)CCN(CC(=O)O)CC1)C(=O)N[C@H](CC(=O)O)C(=O)N[C@H](CC(=O)O)C(=O)O` [DOTA-NAP-D-Asp-D-Asp, Ac-Nle-Asp-His-D-Phe-Arg-Trp-Gly-Lys(DOTA)-D-Asp-D-Asp-OH] (Ac-[Nle]DH[dF]RWGK(DOTA)[dD][dD]-OH): the entries for the “Reduction of biological activity compared to DOTA-NAP-amide” value in the data set on B16-F1 cells and with B16-F1 cells (listed as DOTA-NAP by D-Asp-D-Asp) were > 10 fold and “around 11 fold”, respectively. For the same compound, the “Biological activity rEC50 [α-MSH = 1]” value with B16-F1 cells (relative concentration vs. α-MSH (=1) inducing half-maximal melanin production by B16-F1 cells, 72 h, absorbance 310 nm, n = 3–13, ^c = P < 0.05 vs. DOTA-NAP-amide) is on record as 7.66 ± 0.33^c.
On to `CCCC[C@H](NC(C)=O)C(=O)N[C@@H](CC(=O)O)C(=O)N[C@@H](Cc1c[nH]cn1)C(=O)N[C@H](Cc1ccccc1)C(=O)N[C@@H](CCCNC(=N)N)C(=O)N[C@@H](Cc1c[nH]c2ccccc12)C(=O)NCC(=O)N[C@@H](CCCCNC(=O)CN1CCN(CC(=O)O)CCN(CC(=O)O)CCN(CC(=O)O)CC1)C(N)=O` [DOTA-NAP-amide, [Ac-Nle^4,Asp^5,D-Phe^7,Lys^11(DOTA)]-α-MSH4-11, reference compound], for which, in data set [1], the “Tumor and non-tumor tissue uptake (in words)” value was “highest tumor uptake paired with minimal non-tumor tissue uptake, except for the kidneys”.
